Assays:
EGFR(L861Q) = EGFR(L861Q) (Homo sapiens, UniProt P00533, L861Q); details: 10 μM
ABCG2 (MDCKII–ABCG2) = target: T1, ABCG2 (MDCKII–ABCG2) (Homo sapiens, UniProt Q9UNQ0); experiment: Bidirectional drug transport assay; type: in vitro ADME; details: 10 μM, mean of three experiments
T1 construct: expressed in transfected cells; host or cells: MDCKII-ABCG2

[1] = target: ABL1(Y253F)-phosphorylated (Homo sapiens, UniProt P00519, Y253F); details: 10 μM
[2] = Drug accumulation in organs of BALB/c mice; type: in vivo; details: intravenous 12.5 mg/kg, 30 min
[3] = target: ABL1(F317I)-phosphorylated (Homo sapiens, UniProt P00519, F317I); experiment: biochemical; details: read-out: Percent control
[4] = target: ABL1(F317L)-nonphosphorylated (Homo sapiens, UniProt P00519, F317L); experiment: biochemical; details: read-out: Percent control
ABCG2 = target: T2, ABCG2 (Homo sapiens, UniProt Q9UNQ0); experiment: Bidirectional drug transport assay; type: in vitro ADME; details: dog, pH 7.4, MDCKII–ABCG2, mean of three experiments
T2 construct: expressed in transfected cells; host or cells: MDCKII-ABCG2

RET(M918T) = RET(M918T) (Homo sapiens, UniProt P07949, M918T); experiment: biochemical; details: read-out: Percent control
FGFR3 = FGFR3 (Homo sapiens, UniProt P22607); experiment: biochemical; details: read-out: Percent control
[5] = target: ABL1(T315I)-phosphorylated (Homo sapiens, UniProt P00519, T315I); experiment: biochemical; details: read-out: Percent control
RET = RET (Homo sapiens, UniProt P07949); experiment: biochemical; details: read-out: Percent control
[6] = target: ABL1(H396P)-nonphosphorylated (Homo sapiens, UniProt P00519, H396P); experiment: biochemical; details: read-out: Percent control
[7] = target: ABL1(E255K)-phosphorylated (Homo sapiens, UniProt P00519, E255K); experiment: biochemical; details: read-out: Percent control
RET(V804TL) = RET(V804TL) (Homo sapiens, UniProt P07949, V804L); experiment: biochemical; details: read-out: Percent control
EPHA1 = target: T3, EPHA1 (Homo sapiens, UniProt P21709); experiment: biochemical; details: read-out: Percent control
T3 sequence (P21709 26-976): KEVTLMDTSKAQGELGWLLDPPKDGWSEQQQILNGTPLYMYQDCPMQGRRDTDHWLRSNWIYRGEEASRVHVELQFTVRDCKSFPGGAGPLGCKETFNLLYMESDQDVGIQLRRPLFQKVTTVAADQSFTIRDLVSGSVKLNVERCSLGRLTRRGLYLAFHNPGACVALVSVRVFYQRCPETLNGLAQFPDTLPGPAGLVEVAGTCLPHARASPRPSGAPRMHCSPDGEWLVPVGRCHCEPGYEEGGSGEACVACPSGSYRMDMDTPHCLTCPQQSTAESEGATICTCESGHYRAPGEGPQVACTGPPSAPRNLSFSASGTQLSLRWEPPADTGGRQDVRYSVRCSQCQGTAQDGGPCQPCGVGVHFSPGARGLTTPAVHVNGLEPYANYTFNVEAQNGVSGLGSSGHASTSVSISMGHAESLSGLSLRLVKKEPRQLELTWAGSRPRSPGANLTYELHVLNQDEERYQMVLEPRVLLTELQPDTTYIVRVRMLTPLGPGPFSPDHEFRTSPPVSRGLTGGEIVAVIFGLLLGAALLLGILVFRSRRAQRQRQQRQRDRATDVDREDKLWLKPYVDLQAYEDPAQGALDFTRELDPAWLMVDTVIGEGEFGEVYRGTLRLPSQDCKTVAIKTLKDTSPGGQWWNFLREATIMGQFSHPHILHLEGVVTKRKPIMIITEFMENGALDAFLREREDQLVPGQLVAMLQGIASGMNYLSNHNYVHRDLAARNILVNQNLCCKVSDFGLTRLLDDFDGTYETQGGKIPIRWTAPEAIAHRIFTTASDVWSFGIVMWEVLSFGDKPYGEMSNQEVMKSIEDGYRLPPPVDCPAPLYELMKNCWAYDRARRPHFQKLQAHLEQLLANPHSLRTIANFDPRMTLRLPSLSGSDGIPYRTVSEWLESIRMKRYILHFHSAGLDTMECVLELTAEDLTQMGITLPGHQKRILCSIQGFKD

HCC827 = experiment: Anticancer activity (cytotoxicity) in NSCLC cell line; type: cell-based; details: Homo sapiens, HCC827, EGFR ΔE746-A750 (sensitizing)

T1 sequence (Q9UNQ0 whole entry, species assumed): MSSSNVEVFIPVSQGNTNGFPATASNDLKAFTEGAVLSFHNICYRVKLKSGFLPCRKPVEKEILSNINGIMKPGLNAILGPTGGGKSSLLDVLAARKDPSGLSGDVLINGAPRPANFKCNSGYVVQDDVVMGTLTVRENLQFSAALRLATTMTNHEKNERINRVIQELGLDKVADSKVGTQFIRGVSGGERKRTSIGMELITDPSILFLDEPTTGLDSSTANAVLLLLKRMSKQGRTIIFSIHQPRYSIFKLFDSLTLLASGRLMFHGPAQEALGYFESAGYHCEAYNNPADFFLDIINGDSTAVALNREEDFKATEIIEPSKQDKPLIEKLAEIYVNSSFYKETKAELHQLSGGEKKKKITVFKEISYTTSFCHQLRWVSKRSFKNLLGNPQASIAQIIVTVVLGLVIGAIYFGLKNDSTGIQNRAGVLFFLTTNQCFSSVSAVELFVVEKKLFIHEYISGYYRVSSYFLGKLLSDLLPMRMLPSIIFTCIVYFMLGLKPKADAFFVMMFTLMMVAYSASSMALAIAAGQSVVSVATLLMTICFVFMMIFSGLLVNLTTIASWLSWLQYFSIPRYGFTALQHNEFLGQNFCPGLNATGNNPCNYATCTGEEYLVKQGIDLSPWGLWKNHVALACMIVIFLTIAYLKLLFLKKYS
T2 sequence (Q9UNQ0 whole entry, species assumed): as above
Sequence of RET(V804TL) (P07949 29-1114 V804L): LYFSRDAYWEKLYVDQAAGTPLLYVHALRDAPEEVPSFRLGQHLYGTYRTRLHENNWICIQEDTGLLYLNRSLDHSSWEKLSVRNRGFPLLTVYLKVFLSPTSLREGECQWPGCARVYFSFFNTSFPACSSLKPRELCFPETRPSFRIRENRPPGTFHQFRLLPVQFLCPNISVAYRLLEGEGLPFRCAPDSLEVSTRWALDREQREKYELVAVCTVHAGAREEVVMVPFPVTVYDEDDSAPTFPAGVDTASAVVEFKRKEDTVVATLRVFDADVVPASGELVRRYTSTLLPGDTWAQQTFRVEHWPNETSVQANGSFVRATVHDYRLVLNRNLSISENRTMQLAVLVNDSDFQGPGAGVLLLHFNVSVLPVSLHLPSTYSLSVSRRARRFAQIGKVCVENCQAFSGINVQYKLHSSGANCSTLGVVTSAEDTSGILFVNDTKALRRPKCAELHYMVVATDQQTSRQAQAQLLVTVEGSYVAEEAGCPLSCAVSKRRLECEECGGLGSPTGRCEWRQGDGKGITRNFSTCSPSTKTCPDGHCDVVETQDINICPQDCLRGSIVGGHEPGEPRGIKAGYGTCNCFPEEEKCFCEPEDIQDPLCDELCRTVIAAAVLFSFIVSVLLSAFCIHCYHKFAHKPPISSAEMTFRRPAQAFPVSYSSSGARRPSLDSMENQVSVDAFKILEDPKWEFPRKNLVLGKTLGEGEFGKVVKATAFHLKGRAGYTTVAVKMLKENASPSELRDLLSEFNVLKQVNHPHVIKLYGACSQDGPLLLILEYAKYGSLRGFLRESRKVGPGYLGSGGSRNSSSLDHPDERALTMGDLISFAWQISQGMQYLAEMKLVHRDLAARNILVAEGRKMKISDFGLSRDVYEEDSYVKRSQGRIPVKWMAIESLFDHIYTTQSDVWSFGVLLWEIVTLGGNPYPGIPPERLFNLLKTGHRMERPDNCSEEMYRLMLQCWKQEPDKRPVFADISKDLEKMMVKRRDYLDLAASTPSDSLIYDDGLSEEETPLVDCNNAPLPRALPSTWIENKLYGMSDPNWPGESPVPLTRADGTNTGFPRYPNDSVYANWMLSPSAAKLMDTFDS
Sequence of EGFR(L861Q) (P00533 25-1210 L861Q): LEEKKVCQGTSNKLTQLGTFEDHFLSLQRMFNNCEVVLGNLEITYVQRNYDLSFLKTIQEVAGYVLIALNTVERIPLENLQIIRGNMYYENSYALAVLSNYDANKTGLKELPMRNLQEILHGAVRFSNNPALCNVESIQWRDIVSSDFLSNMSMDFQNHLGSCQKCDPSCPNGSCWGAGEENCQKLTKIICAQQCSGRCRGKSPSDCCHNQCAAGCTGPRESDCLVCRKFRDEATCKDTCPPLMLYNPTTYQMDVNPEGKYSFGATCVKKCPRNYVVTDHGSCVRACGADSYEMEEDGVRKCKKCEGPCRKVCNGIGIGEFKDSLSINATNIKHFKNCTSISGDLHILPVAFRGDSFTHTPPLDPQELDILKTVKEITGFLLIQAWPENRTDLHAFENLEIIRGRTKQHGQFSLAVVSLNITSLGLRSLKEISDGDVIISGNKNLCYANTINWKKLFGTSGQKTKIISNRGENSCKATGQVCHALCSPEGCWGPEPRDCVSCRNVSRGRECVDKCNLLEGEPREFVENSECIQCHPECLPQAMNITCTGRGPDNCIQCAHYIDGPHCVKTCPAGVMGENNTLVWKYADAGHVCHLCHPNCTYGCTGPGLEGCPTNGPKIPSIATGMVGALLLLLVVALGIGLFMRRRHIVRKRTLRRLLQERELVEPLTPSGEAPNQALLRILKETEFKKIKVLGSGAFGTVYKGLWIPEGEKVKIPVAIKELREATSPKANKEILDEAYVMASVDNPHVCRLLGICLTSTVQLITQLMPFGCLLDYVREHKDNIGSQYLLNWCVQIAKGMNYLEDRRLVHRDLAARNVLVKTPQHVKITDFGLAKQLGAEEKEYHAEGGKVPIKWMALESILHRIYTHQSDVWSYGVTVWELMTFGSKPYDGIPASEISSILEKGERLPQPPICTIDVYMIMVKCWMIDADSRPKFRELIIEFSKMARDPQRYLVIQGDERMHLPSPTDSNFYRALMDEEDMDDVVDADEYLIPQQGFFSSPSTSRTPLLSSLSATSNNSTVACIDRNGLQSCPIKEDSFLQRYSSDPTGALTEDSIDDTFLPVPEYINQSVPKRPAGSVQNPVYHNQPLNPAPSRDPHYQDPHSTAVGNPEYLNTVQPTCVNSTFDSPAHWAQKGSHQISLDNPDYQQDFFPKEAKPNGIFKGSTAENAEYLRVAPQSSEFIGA
Sequence of RET (P07949 29-1114): as the sequence (P07949 29-1114 V804L) above, with L776V counted along it
Sequence of RET(M918T) (P07949 29-1114 M918T): as the sequence (P07949 29-1114 V804L) above, with L776V, M890T counted along it
Sequence of FGFR3 (P22607 23-806): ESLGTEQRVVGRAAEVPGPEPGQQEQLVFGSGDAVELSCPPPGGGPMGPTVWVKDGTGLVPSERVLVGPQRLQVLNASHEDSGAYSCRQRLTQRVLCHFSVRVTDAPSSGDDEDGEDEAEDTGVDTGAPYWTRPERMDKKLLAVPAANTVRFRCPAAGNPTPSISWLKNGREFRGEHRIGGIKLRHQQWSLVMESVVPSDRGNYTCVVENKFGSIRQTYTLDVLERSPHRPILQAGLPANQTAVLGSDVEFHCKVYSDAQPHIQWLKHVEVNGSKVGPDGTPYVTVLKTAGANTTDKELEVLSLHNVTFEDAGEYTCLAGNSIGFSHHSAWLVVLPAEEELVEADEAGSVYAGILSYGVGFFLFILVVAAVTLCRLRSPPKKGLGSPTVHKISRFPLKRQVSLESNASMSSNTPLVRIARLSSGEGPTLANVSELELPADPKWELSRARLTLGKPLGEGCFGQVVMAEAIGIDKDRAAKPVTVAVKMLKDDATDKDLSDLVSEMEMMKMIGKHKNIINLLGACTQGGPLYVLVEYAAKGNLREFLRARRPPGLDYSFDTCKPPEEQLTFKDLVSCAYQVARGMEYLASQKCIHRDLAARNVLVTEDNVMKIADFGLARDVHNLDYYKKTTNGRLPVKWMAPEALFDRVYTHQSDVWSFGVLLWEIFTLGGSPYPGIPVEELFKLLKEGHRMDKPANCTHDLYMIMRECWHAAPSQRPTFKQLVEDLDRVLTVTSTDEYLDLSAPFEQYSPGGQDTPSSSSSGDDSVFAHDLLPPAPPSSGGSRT

SMILES: Cc1ccc(NC(=O)c2ccc(CN3CCN(C)CC3)cc2)cc1Nc1nccc(-c2cccnc2)[n+]1[Pt-2]1([Cl])[NH2+]C2CCCCC2[NH2+]1 (stereo not shown) [1b, oxaliplatin-imatinib]
- Percent control (EGFR(L861Q)): 42%

SMILES: C#Cc1cccc(Nc2c3cc(OCCOC)c(OCCOC)cc3nc[n+]2[Pt@SP2-2]([NH3+])([NH3+])[Cl])c1 [2a, cisplatin-erlotinib]
- A to B transport (apparent permeability) (ABCG2 (MDCKII–ABCG2)): 7.21 × 10^−6
- B to A transport (apparent permeability) (ABCG2 (MDCKII–ABCG2)): 7.88 × 10^−6
- Percent control [1]: 16%
- brain accumulation, times higher than that of cisplatin [2]: 7 times
- brain accumulation, times higher than that of erlotinib [2]: > 3 times

SMILES: C#Cc1cccc(Nc2ncnc3cc(OCCOC)c(OCCOC)cc23)c1 [Erlotinib]
- remaining activity at 10 µM [3]: 9.9%
- remaining activity at 10 µM [4]: 6%
- Papp A→B at 120 min, 10 μM (ABCG2; read-out: A to B transport (apparent permeability)): 14.9 ×10⁻⁶ cm/s
- Papp B→A at 120 min, 10 μM (ABCG2; read-out: B to A transport (apparent permeability)): 45.4 ×10⁻⁶ cm/s
- remaining activity at 10 µM (RET(M918T)): 3.2%
- remaining activity at 10 µM (FGFR3): 100%
- remaining activity at 10 µM [5]: 0.6%
- remaining activity at 10 µM (RET): 11.5%
- remaining activity at 10 µM [6]: 0.9%
- remaining activity at 10 µM [7]: 0.6%
- remaining activity at 10 µM (RET(V804TL)): 100%

SMILES: COc1cc2c(Nc3ccc(Br)cc3F)ncnc2cc1OCC1CCN(C)CC1 [Vandetanib, reference compound]
- remaining activity at 10 µM (EPHA1): 2.2%
- IC50 (HCC827): 11 ± 2 nM

— paper PMC4858680, “A platinum-based hybrid drug design approach to circumvent acquired resistance to molecular targeted tyrosine kinase inhibitors” (Scientific Reports, 2016)
